According to patent US5192668A, “Synthesis of protease inhibitor” (Merck & Co., Inc., priority 1992, dated 1993):

Molecular target: T1, HIV protease (Human immunodeficiency virus type 1 group M subtype B, UniProt P12497)
T1 construct: HIV protease expressed in Escherichia coli; made in house; host or cells: Escherichia coli
Experiment: Assay for Inhibition of Recombinant HIV Protease (APRIN 2.1)
Format: biochemical
Conditions: Conc. 1 ng/ml; read-out: APRIN 2.1 Act. (% Inhib.)
Procedure: Assay for Inhibition of Recombinant HIV Protease (APRIN 2.1)
Inhibition studies were performed on the reaction of the HIV protease expressed in Escherichia coli with a tritiated peptide substrate, [^3 H]-acetyl-Val-Ser-Gln-Asn-(beta-napthyl-Ala)-Pro-Ile-Val-Gln-Gly-Arg -Arg-NH2 (MW 1800). The two arginine residues at the carboxyl terminus give this peptide an overall positive charge at acidic pH and enable it to bind to the H^+ form of DOWEX AG-50W-X8 resin and similar resins.
Aliquots of 25 μl containing 6.0-8.0 nM HIV protease in assay buffer (100 mM sodium acetate, pH 5.5 and 0.1% BSA) are placed in assay tubes. The reaction is initiated by addition of 25 μl aliquots of 4.2 μM tritiated peptide substrate in 100 mM sodium acetate, pH 5.5. After incubation for 60 min at 37° C., the reaction is stopped with 100 μl of 5% H3 PO4, then analysed by application of column chromatography.

For CC(C)(C)OC(=O)N[C@@H](Cc1ccccc1)[C@@H](O)C[C@@H](Cc1ccc(OCC(=O)O)cc1)C(=O)N[C@H]1c2ccccc2C[C@H]1O [L-694,746], which inhibition at 0.001 µg/mL is on record?
The inhibition at 0.001 µg/mL was 88%.
